# In US12678418B2, “Compositions and methods for the treatment of threatened respiratory failure caused by coronavirus infection and disease” (ENCYT TECHNOLOGIES, INC., priority 2020, dated 2026):
# “Also recorded” adds a separate entry of the source. Like-named read-outs stand apart in the source and are kept apart here. Ends that are not written are not given here.
# What was measured:
# [1] = system: Neu1 sialidase; assay: Sialidase activity in live RAW-blue macrophage cells, 4-MUNANA substrate (Example 1); type: cell-based, mouse; conditions: for inhibition of sialidase activity associated with S-protein: FIG. 2B; for inhibition of sialidase activity associated with S-protein / inhibition of sialidase activity associated with S-protein (UK variant): inhibitor 200 μg/mL, 0.318 mM 4-MUNANA; for inhibition of sialidase activity associated with S-protein (UK variant): FIG. 2C
# [2] = biological target: T1, Neu1 sialidase (Mus musculus, UniProt O35657); conditions: cited from earlier work; for inhibition of the LPS-induced sialidase activity: live BMC-2 macrophage cells
# T1 construct: […]; endogenous in cells; host or cells: BMC-2 macrophage cells
# [3] = biological target: T1, Neu1 sialidase; type: cell-based; conditions: for inhibition of lipopolysaccharide (LPS) induced sialidase activity: live BMC-2 macrophage cells, 1-2 mM, compared to LPS positive control; for inhibition of sialidase (Neu1) activity associated with TLR ligand treated live macrophage cells: cell surface of macrophage and dendritic cells
# Description: Central to this process is that Neu1 and not Neu2,-3 and -4 forms a complex with TLR-2,-3 and -4 on the cell surface of naïve macrophage cells. […] Endotoxin LPS binding to TLR4 induces Neu1 with subsequent activation of NFκB and the production of nitric oxide and proinflammatory IL-6 and TNFα cytokines in primary and macrophage cell lines.
# [4] = biological target: T2, human Neu3 sialidase (Homo sapiens, UniProt Q9UQ49); conditions: micromolar range; cited from earlier work
# T2 sequence (Q9UQ49 1-428): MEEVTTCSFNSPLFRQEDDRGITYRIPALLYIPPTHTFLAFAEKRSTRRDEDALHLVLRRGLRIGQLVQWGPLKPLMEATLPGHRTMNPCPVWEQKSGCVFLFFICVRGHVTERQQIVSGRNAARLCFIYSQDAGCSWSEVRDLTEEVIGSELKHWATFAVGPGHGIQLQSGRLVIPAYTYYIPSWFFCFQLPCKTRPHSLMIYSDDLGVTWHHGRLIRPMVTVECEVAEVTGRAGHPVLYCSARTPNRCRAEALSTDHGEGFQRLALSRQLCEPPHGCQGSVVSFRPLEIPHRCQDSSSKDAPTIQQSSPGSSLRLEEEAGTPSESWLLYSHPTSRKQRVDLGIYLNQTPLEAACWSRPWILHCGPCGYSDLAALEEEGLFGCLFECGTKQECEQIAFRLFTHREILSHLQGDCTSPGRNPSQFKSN
# [5] = system: Neu1 sialidase; conditions: 2 mM, lysates from mature dendritic cells; cited from earlier work
# [6] = system: Neu3 sialidase; conditions: 2 mM, lysates from mature dendritic cells; cited from earlier work
# [7] = biological target: LPS induced sialidase activity in live BMA macrophage cells (Mus musculus, UniProt O35657); conditions: clopidogrel bisulfate 280 μM and 500 μM for 2 min, 5 μg/ml LPS, 400 μM OP
# [8] = biological target: carboxylesterase (Homo sapiens, UniProt P23141); conditions: previously determined; cited from earlier work
# carboxylesterase, sequence (P23141 18-567): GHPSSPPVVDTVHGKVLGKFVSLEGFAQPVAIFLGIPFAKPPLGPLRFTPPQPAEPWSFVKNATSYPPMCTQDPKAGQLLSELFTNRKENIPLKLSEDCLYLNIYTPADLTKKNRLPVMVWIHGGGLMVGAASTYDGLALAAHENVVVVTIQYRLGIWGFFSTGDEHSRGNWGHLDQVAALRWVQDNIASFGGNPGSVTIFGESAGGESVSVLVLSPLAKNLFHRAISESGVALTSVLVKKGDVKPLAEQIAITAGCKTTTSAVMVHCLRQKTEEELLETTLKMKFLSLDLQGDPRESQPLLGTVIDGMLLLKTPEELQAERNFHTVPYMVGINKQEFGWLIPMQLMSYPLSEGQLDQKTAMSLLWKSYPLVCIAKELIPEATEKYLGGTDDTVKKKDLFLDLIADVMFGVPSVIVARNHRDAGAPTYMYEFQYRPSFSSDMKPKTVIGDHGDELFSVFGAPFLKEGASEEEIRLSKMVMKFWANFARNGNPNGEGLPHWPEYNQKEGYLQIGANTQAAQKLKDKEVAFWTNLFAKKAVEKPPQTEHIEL
# [9] = biological target: MMP7 (Homo sapiens, UniProt P09237); conditions: read-out: IC50 for MMP7; cited from earlier work
# MMP7, sequence (P09237 95-267, species assumed): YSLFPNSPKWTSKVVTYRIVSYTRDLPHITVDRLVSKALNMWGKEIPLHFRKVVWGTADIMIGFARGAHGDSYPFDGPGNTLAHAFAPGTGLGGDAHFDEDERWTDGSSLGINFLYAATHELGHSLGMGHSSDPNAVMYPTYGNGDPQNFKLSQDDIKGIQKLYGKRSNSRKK
# [10] = biological target: T3, MMP1 (Homo sapiens, UniProt P03956); conditions: read-out: IC50 for MMP1; cited from earlier work
# T3 sequence (P03956 100-469): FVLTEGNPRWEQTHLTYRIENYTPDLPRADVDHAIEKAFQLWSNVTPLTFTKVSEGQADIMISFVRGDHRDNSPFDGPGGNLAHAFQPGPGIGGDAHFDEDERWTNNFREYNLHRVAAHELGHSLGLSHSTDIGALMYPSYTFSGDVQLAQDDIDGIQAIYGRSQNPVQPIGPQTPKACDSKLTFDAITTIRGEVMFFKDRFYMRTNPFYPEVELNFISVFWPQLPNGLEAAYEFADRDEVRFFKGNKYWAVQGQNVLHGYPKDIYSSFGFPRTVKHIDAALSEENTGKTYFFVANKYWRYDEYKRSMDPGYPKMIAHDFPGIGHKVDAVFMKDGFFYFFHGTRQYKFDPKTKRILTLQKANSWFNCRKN
# [11] = biological target: MMP9 (Homo sapiens, UniProt P14780); conditions: cited from earlier work
# MMP9, sequence (P14780 94-707, species assumed): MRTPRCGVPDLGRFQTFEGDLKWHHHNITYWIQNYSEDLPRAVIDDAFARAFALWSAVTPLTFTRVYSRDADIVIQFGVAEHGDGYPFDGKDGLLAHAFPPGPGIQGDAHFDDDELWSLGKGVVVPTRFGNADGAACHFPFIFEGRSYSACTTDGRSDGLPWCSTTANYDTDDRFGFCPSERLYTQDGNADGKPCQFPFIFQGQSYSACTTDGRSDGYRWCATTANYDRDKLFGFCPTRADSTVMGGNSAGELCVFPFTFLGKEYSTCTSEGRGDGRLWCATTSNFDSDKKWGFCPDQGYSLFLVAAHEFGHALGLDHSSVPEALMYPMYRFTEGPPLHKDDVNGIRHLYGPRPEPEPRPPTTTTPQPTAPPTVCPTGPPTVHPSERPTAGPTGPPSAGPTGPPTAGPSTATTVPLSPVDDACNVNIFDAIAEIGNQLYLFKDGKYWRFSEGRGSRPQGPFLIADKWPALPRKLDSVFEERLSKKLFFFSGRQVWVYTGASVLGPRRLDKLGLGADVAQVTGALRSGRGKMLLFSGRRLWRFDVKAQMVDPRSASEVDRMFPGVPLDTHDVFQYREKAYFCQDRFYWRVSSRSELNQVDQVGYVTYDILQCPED
# [12] = biological target: MMP3 (Homo sapiens, UniProt P08254); conditions: cited from earlier work
# MMP3, sequence (P08254 100-477, species assumed): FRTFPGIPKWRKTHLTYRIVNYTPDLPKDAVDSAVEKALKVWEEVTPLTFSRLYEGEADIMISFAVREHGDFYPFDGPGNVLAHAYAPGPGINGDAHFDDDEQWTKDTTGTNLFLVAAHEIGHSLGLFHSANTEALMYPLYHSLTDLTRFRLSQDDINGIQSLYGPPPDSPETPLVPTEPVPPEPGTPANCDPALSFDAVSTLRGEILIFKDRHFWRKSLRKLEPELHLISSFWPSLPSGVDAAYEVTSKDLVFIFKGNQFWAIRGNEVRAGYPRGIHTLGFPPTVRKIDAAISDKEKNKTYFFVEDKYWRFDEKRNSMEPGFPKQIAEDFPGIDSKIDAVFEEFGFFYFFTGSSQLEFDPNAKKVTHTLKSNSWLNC
# [13] = biological target: mammalian neuraminidase 1 (Homo sapiens, UniProt Q99519); assay: Aspirin with OP on mammalian neuraminidase 1
# [14] = biological target: T4, neuraminidase 1 (Homo sapiens, UniProt Q99519); assay: Neu-1 activity in live PANC-1 cells stimulated with EGF; type: cell-based; conditions: FIG. 5; aspirin 1.6 mM-6.4 mM, 30 ng/mL EGF, 0.318 mM 4-MUNANA
# T4 construct: endogenous in cells; host or cells: PANC-1
# Procedure: Live PANC-1 cells were pre-treated with increasing concentrations of aspirin (1.6 mM-6.4 mM), followed by stimulation with 30 ng/mL of EGF to initiate Neu-1 activity. 0.318 mM 4-MUNANA substrate was added to quantify Neu-1 activity.
# [15] = system: SEAP gene inducible by NF-kB and AP-1 in RAW-Blue cells; assay: SEAP reporter assay in RAW-Blue cells (Example 2); type: cell-based, mouse; conditions: for expression of SEAP (reflective of NF-kB expression): FIG. 3A-3D, various concentrations
# Procedure: RAW-Blue™ cells (mouse macrophage reporter cell line, Invivogen, San Diego CA) derived from RAW 264.7 macrophages were grown in a culture medium under the selection of Zeocin™. The cells stably express a secreted embryonic alkaline phosphatase (SEAP) gene inducible by NF-kB and AP-1 transcription factors. Upon stimulation, RAW-Blue™ cells activate NF-kB and AP-1 leading to the secretion of SEAP, which is detectable and measurable using QUANTI-Blue™, a SEAP detection medium (Invivogen). Supernatants (20 uL) after 24 hr reaction from treated RawBlue cells is added to QuantiBlue reagent (180 uL), and the readout of color reaction was done after 6 hrs. QUANTI-Blue™ is a colorimetric enzyme assay developed to determine the activity of any alkaline phosphatase present in a biological sample (supernatants) and was prepared according to manufacturer's instructions. RAW-Blue™ cells are resistant to Zeocin™ and G418.
# A cell suspension of 550,000 RAW-blue cells/mL in fresh growth medium was prepared, and 180 μL of cell suspension (~100,000 cells) was added to each well of a Falcon flat-bottom 96-well plate (Becton Dickinson). After different incubation times, indicated dosages of LPS, bradykinin, angiotensin 1-7, neuropeptide FF, and S-protein alone or together with indicated dose-dependent OP were added to each well. The plates were incubated at 37° C. in a 5% CO2 incubator for 18-24 h. 180 μL of QUANTI-Blue™ solution was added to each well of a flat-bottom 96-well plate, followed by 20 μL of supernatant from stimulated RAW-blue cells. The plate was incubated for 30 min to 3 h at 37° C. and the SEAP levels were determined using a spectrophotometer at 620-655 nm. Each experiment was performed in triplicate.
# [16] = system: Neu1; conditions: live macrophage cell lines and primary bone marrow macrophage cells from wild-type mice, not from Neu1-deficient mice; cited from earlier work
# [17] = biological target: MMP13 (Homo sapiens, UniProt P45452); conditions: cited from earlier work
# [18] = system: NFκB activation, nitric oxide, IL-6 and TNFα in primary or macrophage cell lines; assay: LPS/TLR ligand induced NFκB activation, nitric oxide and pro-inflammatory cytokines in macrophage cells; type: cell-based; conditions: macrophage and dendritic cells
# Description: Thus, there is evidence that the activation of Neu1 sialidase in complex with TLR-2,-3 and -4 receptors on the cell surface of macrophages is inhibited by the neuraminidase inhibitor OP. […] On the basis that Mas GPCR potentiates receptor biased-induced TLR transactivation via NMBR-Neu1-MMP9 crosstalk on the cell surface alveolar macrophages, then OP will inhibit the pro-inflammatory responses in the lungs and reduce the inflammatory process.
# [19] = cited from earlier work
# [20] = system: NFκB activation, nitric oxide, IL-6 and TNFα in primary or macrophage cell lines; conditions: cited from earlier work
compound,measurement,setting,value
N[C@@H](CS)C(=O)N1CCn2cc(-c3ccccc3)nc2[C@@H]1CC1CCCCC1 [BIM-46174],inhibition of sialidase activity triggered by recombinant S protein and LPS,[1],inhibited
same,inhibition of sialidase activity associated with S-protein,[1],inhibited
same,inhibition of sialidase activity associated with S-protein (UK variant),[1],inhibited
"CC(=O)N[C@H]1[C@H]([C@H](O)[C@H](O)CO)OC(C(=O)O)=C[C@@H]1N=C(N)N [zanamivir, 4-guanidino-Neu5Ac2en]",inhibition of the LPS-induced sialidase activity,[2],limited significant inhibition
same,inhibition of lipopolysaccharide (LPS) induced sialidase activity,[3],limited effect
same,inhibition of human Neu3 sialidase,[4],significantly inhibited
same,inhibition of Neu1 sialidase activity,[5],completely inhibited
same,inhibition of Neu3 sialidase activity,[6],completely inhibited
COC(=O)[C@H](c1ccccc1Cl)N1CCc2sccc2C1 [clopidogrel],effect on OP's capacity to inhibit LPS induced sialidase activity,[7],no effect
same,inhibition of the hydrolysis of OP by carboxylesterase,[8],≤ 90%
C1CNCCN1 [PIPZ],IC50,[9],30 nM
same,IC50,[10],24 nM
same,IC50,[11],2.7 nM
same,IC50,[12],18.4 nM
CC(=O)Oc1ccccc1C(=O)O [aspirin],inhibition of mammalian neuraminidase 1 by aspirin together with OP,[13],potentiates the ability of OP to inhibit mammalian neuraminidase 1
same,reduction in Neu-1 activity,[14],substantial reduction
"neuropeptide FF (FLFQPQRF; ends and bridges not checked; UniProt O15130 69-76, looked up) [MAS agonist]",expression of SEAP (reflective of NF-kB expression),[15],triggered increased expression of SEAP
"angiotensin-2: GPCR agonist, printed as 'angiotensin-1 and -2' (DRVYIHPF; Angiotensin-2; UniProt P01019 25-32, looked up)",induction of Neu1 activity,[16],induce Neu1 activity
CCN(CC)Cc1cc(C)c(N(Cc2ccccc2)S(=O)(=O)c2ccc(OC)cc2)c(C(=O)NO)c1 [MMP9 inhibitor],inhibition of sialidase activity associated with S-protein,[1],inhibited
same,inhibition of sialidase activity associated with S-protein (UK variant),[1],inhibited
same,IC50,[17],113 nM
same,IC50,[10],1050 nM
"CC(=O)N[C@H]1[C@H]([C@H](O)[C@H](O)CO)OC(C(=O)O)=C[C@@H]1O [DANA, 2-deoxy-2,3-dehydro-N-acetylneuraminic acid]",inhibition of the LPS-induced sialidase activity,[2],limited significant inhibition
same,inhibition of lipopolysaccharide (LPS) induced sialidase activity,[3],limited effect
"angiotensin 1-7 (DRVYIHP; Angiotensin 1-7; UniProt P01019 25-31, looked up)",induction of sialidase activity,"[1]; FIG. 2A, agonist 20 μg/mL",induces Sialidase activity
same,expression of SEAP (reflective of NF-kB expression),[15],triggered increased expression of SEAP
lysophosphatidic acid,induction of Neu1 activity,[16],induce Neu1 activity
CC(C)CCC[C@@H](C)[C@H]1CC[C@H]2[C@@H]3CC=C4C[C@@H](O)CC[C@]4(C)[C@H]3CC[C@]12C [cholesterol],induction of Neu1 activity,[16],induce Neu1 activity
thrombin,induction of Neu1 activity,[16],not
"CCOC(=O)C1=C[C@@H](OC(CC)CC)[C@H](NC(C)=O)[C@@H](N)C1.O=P(O)(O)O [OP, (3R,4R,5S)-4-acetylamino-5-amino-3-(1-ethylpropoxy)1-cyclohexene-1-carboxylic acid, ethyl ester, phosphate (1:1)]",inhibition of sialidase activity triggered by recombinant S protein and LPS,[1],blocked
same,inhibition of sialidase activity associated with S-protein,[1],inhibited
same,inhibition of sialidase activity associated with S-protein (UK variant),[1],inhibited
same,"block of TLR ligand induced NFkB activation, nitric oxide (NO) production and pro-inflammatory cytokines",[18],blocks
same,OP blockage of LPS-induced Neu1 sialidase activity after clopidogrel pretreatment,[2]; BMC-2 cells pretreated with anti-carboxylesterase agent clopidogrel,not affected
same,inhibition of the LPS-induced sialidase activity,[2],completely blocks
same,inhibition of sialidase (Neu1) activity associated with TLR ligand treated live macrophage cells,[3],most potent; also recorded: potent inhibitor
same,inhibition of sialidase (Neu1) activity associated with TLR ligand treated live macrophage cells,[3]; listed as oseltamivir phosphate,specifically inhibits
same,inhibition of S-protein triggered activity by SEAP reporter assay,"[15]; FIG. 4C, S-protein 10 ug/mL, OP at indicated concentrations",significantly decreased; also recorded: inhibited sialidase activity in a dose dependent manner
same,solubility in water,[19],soluble in water
same,inhibition of endotoxin LPS induced NFκB activation and production of nitric oxide and pro-inflammatory IL-6 and TNFα cytokines,[20],significantly inhibited
CNC(=O)[C@H](Cc1c[nH]c2ccccc12)NC(=O)[C@@H](CC(=O)NO)CC(C)C [Galardin],IC50,[12],27 nM
CCC(CC)[C@H](NC(C)=O)[C@@H]1C[C@@H](C(=O)O)C[C@H]1N=C(N)N [BCX1827],inhibition of the LPS-induced sialidase activity,[2],limited significant inhibition
same,inhibition of lipopolysaccharide (LPS) induced sialidase activity,[3],limited effect
"angiotensin-1 (DRVYIHPFHL; Angiotensin-1; UniProt P01019 25-34, looked up) [GPCR agonist]",induction of Neu1 activity,[16],induce Neu1 activity
